Measurements taken from patent publication EP4603105A1, “PHARMACEUTICAL COMPOSITION CONTAINING CYCLIC COMPOUND HAVING SELECTIVE KRAS INHIBITORY EFFECT AGAINST HRAS AND NRAS” (CHUGAI SEIYAKU KABUSHIKI KAISHA, priority 2022, dated 2024).
pIC50: −log10 of the molar value. Where a SMILES comes first, the peptide text is derived from it. Bridges are numbered along the chain shown (N, C = ends). [ ]: non-standard residue; d: D form. The star is where a group is joined. hPhe(3-Cl-4-CF3) = N[C@@H](CCc1ccc(C(F)(F)F)c(Cl)c1)C(=O)O; NPrPhe(4-CF3) = CCCN[C@@H](Cc1ccc(C(F)(F)F)cc1)C(=O)O; NMeGly(cPent) = CN[C@H](C(=O)O)C1CCCC1; Hyp = O=C(O)[C@@H]1C[C@@H](O)CN1; NMeD = CN[C@@H](CC(=O)O)C(=O)O; NMeL = CN[C@@H](CC(C)C)C(=O)O; Morpholide = C1CN(*)CCO1; Ac4c = NC1(C(=O)O)CCC1; NEtG = CCNCC(=O)O; Sar = CNCC(=O)O

Legend:
[1] = target: GDP-bound NRAS wild-type protein (Homo sapiens, UniProt P01111); experiment: Binding to NRAS by surface plasmon resonance (SPR), KD and KD ratio to KRAS
Outline: (§1)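 Affinity is measured by surface plasmon resonance at 30°C against captured, GDP-loaded RAS carrying a biotinylated Avi tag. Compounds are titrated by single-cycle kinetics, and KD comes from a 1:1 fit.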

HRAS wild-type protein = HRAS wild-type protein (Homo sapiens, UniProt P01112); experiment: Binding to HRAS by surface plasmon resonance (SPR), KD and KD ratio to KRAS
Outline: as §1

[2] = test system: human lung cancer strain NCI-H441; assay type: cell-based
Outline: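 Readout: […] after the ATP-based reagent. Compound: serial dilutions in dimethyl sulfoxide.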

[3] = ratio of the KD value with respect to GDP-bound NRAS wild-type protein to the KD value with respect to KRAS
[4] = ratio of the KD value with respect to HRAS wild-type protein to the KD value with respect to KRAS
[5] = ratio of KD for GDP-bound NRAS wild-type protein to KD for KRAS
[6] = ratio of KD for HRAS wild-type protein to KD for KRAS

Chain of GDP-bound NRAS wild-type protein (P01111 whole entry): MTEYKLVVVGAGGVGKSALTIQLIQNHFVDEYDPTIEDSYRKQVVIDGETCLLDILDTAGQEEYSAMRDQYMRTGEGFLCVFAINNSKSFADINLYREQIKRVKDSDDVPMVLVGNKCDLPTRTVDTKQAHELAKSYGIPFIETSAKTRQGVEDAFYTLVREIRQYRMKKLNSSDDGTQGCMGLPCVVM
Chain of HRAS wild-type protein (P01112 whole entry): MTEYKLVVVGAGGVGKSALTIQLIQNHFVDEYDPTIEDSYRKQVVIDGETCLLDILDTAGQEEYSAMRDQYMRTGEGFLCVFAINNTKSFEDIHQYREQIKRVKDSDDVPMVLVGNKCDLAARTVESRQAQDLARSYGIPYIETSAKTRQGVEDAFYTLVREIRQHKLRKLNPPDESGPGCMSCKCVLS

| Structure (SMILES) | pIC50 [2] | NRAS /KRAS [1, 3] | HRAS /KRAS (HRAS wild-type protein; [4]) | NRAS /KRAS [1, 5] | HRAS /KRAS (HRAS wild-type protein; [6]) | NRAS /KRAS ([1]; ratio of KD value for GDP-bound NRAS wild-type protein to KD value for KRAS (SPR)) | HRAS /KRAS (HRAS wild-type protein; ratio of KD value for HRAS wild-type protein to KD value for KRAS (SPR)) |
| --- | --- | --- | --- | --- | --- | --- | --- |
| CC[C@H](C)[C@@H]1NC(=O)[C@H](CC(C)C)N(C)C(=O)C[C@@H](C(=O)N(C)C)N(C)C(=O)[C@H](C2CCCC2)N(C)C(=O)C2(CCCC2)NC(=O)[C@@H]2C[C@H](C)CN2C(=O)[C@H](CCc2cc(F)c(C(F)(F)F)c(F)c2)NC(=O)CN(C)C(=O)[C@H](Cc2ccc(C(F)(F)F)cc2)N2CC/C=C\C[C@@H](C2=O)N(C)C(=O)CN(C)C1=O [PP2268] | 8.01 | A (a compound having 10 or more and less than 20 is denoted as A) | A (a compound having 10 or more and less than 20 is denoted as A) |  |  |  |  |
| CCO[C@@H]1C[C@H]2C(=O)N[C@@]3(C)CCCCCCC[C@@H](C(=O)N[C@@H]([C@@H](C)CC)C(=O)N(C)CC(=O)N(C)[C@H]4CCCCN(C4=O)[C@@H](Cc4ccc(C(F)(F)F)cc4)C(=O)N(C)CC(=O)N[C@@H](CCc4cc(F)c(C(F)(F)F)c(F)c4)C(=O)N2C1)N(C)C(=O)C[C@@H](C(=O)N1CCOCC1)N(C)C(=O)[C@H](C1CCCC1)N(C)C3=O [PP0993] | 6.48 |  |  | B (a compound having 3 or more and less than 10 is denoted as B) | B (a compound having 3 or more and less than 10 is denoted as B) |  |  |
| CCO[C@@H]1C[C@H]2C(=O)NC3(CC(C)(C)C3)C(=O)N(C)[C@@H](C(CC)CC)C(=O)N(C)[C@H](C(=O)N(C)C)CC(=O)N(C)[C@@H](CC(C)C)C(=O)N[C@@H]([C@@H](C)CC)C(=O)N(C)CC(=O)N(C)[C@H]3C/C=C\CCN(C3=O)[C@@H](Cc3ccc(C(F)(F)F)cc3)C(=O)N(C)CC(=O)N[C@@H](CCc3cc(F)c(C(F)(F)F)c(F)c3)C(=O)N2C1 [PP2127] | 7.90 | AA (a compound having 20 or more is denoted as AA) | A (a compound having 10 or more and less than 20 is denoted as A) |  |  |  |  |
| CCO[C@@H]1C[C@H]2C(=O)NC3(CCC(F)(F)CC3)C(=O)N(C)[C@@H](C3CCCC3)C(=O)N(C)[C@H](C(=O)N(C)C)CC(=O)N(C)[C@@H](C)C(=O)N[C@@H]([C@@H](C)CC)C(=O)N(C)CC(=O)N(C)[C@H]3CCCCCN(C3=O)[C@@H](Cc3ccc(C(F)(F)F)cc3)C(=O)N(C)CC(=O)N[C@@H](CCc3cc(F)c(C(F)(F)F)c(F)c3)C(=O)N2C1 [PP0725] | 6.71 | B (a compound having 3 or more and less than 10 is denoted as B) | B (a compound having 3 or more and less than 10 is denoted as B) |  |  |  |  |

Now from value to compound, other results behind:

| pIC50 [2] | Structure (SMILES) | NRAS /KRAS [1, 3] | HRAS /KRAS (HRAS wild-type protein; [4]) | NRAS /KRAS [1, 5] | HRAS /KRAS (HRAS wild-type protein; [6]) | NRAS /KRAS ([1]; ratio of KD value for GDP-bound NRAS wild-type protein to KD value for KRAS (SPR)) | HRAS /KRAS (HRAS wild-type protein; ratio of KD value for HRAS wild-type protein to KD value for KRAS (SPR)) |
| --- | --- | --- | --- | --- | --- | --- | --- |
| 8.02 | CCC[C@H]1C(=O)N[C@@H](C2CCCC2)C(=O)N(C)CC(=O)N(C)[C@H]2C/C=C\CCN(C2=O)[C@@H](Cc2ccc(C(F)(F)F)cc2)C(=O)N(C)CC(=O)N[C@@H](CCc2ccc(C(F)(F)F)c(Cl)c2)C(=O)N2C[C@H](OCC)C[C@H]2C(=O)NC2(CC(C)(C)C2)C(=O)N(C)[C@@H](C2CCCC2)C(=O)N(C)[C@H](C(=O)N(C)C)CC(=O)N1C [PP2984] |  |  | A (a compound having 10 or more and less than 20 is denoted as A) | B (a compound having 3 or more and less than 10 is denoted as B) |  |  |
| 8.51 | CCC[C@H]1C(=O)N[C@@H]([C@@H](C)CC)C(=O)N(C)CC(=O)N(C)[C@H]2C/C=C\CCN(C2=O)[C@@H](Cc2ccc(C(F)(F)F)cc2)C(=O)N(C)CC(=O)N[C@@H](CCc2ccc(C(F)(F)F)c(Cl)c2)C(=O)N2C[C@H](OCC)C[C@H]2C(=O)NC2(CC(C)(C)C2)C(=O)N(C)[C@@H](C2CCCC2)C(=O)N(C)[C@H](C(=O)N(C)C)CC(=O)N1C [PP1748] |  |  |  |  | A (a compound having 10 or more and less than 20 is denoted as A) | B (a compound having 3 or more and less than 10 is denoted as B) |
| 8.29 | CCCN1C(=O)CN(C)C(=O)CN(CC)C(=O)[C@H]([C@@H](C)CC)NC(=O)[C@H](CC(C)C)N(C)C(=O)C[C@@H](C(=O)N2CCOCC2)N(C)C(=O)[C@H](C2CCCC2)N(C)C(=O)C2(CCC2)NC(=O)[C@@H]2C[C@@H](OCC)CN2C(=O)[C@H](CCc2ccc(C(F)(F)F)c(Cl)c2)NC(=O)CN(C)C(=O)[C@@H]1Cc1ccc(C(F)(F)F)cc1 [PP0401] ([NMeL]I[NEtG][Sar][NPrPhe(4-CF3)][Sar][hPhe(3-Cl-4-CF3)][Hyp](Et)[Ac4c][NMeGly(cPent)][NMeD]-Morpholide; lactam N-11) | B (a compound having 3 or more and less than 10 is denoted as B) | B (a compound having 3 or more and less than 10 is denoted as B) |  |  |  |  |
